EP4559898A1, “NOVEL IONIZABLE CATIONIC LIPIDS CONTAINING THIOETHER LINKAGE” (AldexChem Kft., priority 2023, dated 2025)

Tests used:
[1] = Size, PDI and Zeta potential of LNPs by dynamic light scattering; type: physicochemical; settings: LNP formulated with tested lipid, diluted in 1x PBS pH 7.4; for Size: DOTAP, DOPE, Resveratrol, DSPE-PEG and mRNA, dialyzed; for Size / PDI: DLS
Protocol: • 1. If needed, prepare stock solutions by solving known amounts of lipid powder into an appropriate solvent. The recommended solvent is ethanol and the recommended concentration is typically in the range 10-50 mM. Higher concentrations are preferred to allow flexibility on mRNA-LNP concentration. • 2. Remove the lipid stock solutions from the -20°C freezer. For long-term storage, -80°C is used. • 3. Check the vials for precipitation, DOPE (CAS# 4004-05-1) (20 mM) and DSPE-PEG (CAS# 474922-26-4) (5mM) may need a 5-30 minute incubation step at 37°C with intermittent vortexing to resuspend all contents. […] As a last resort, lipids may be heated to 50°C to resuspend, time should be kept as short as possible to prevent oxidation or other modifying or degradative processes. • 4. Mix the lipids by vortexing for 2 minutes. • 5. […] Cooling the solution prevent excessive evaporation of ethanol or similar solvents upon opening. • 6. Meanwhile, thaw the RNA samples, including the latest SecNLuc control, by inserting the frozen tube in a room temperature aluminium block. • 7. Prepare for each LNP-formulation with identical mRNA component, an RNA master mix according to Table 1 below in a fresh tube. Use of a master mix allows more precise comparison of lipid formulations relative to each other. Split the master mix over a number of fresh tubes equal to the number of samples + controls. Each tube contains 375 µl of mRNA in 10 mM Citrate pH 4.0. • 8. Prepare for each LNP formulation with identical lipid composition a Lipid master mix according to Table 1 below in a fresh tube, exclude the lipid of interest. Use of a master mix allows more precise comparison of the novel ionizable lipid relative to each other. Split the master mix over a number of fresh tubes equal to the number of samples + controls. Each tube contains 65.5 µl of lipid master mix. • 9. Add the ionizable lipid of interest to the equally divide lipid master mix. Mix well by pipetting up and down. Label the tube according to the ionizable lipid used. • 10. Power on the L1 FM (L1 Formulation Machine uses 2 high-speed syringe pumps to mix lipids in organic solvents with mRNA in acidic aqeuous solution to generate well-defined LNPs. The microfluidic mixing chip involves a dean-type structure performing the high-efficiency mixing at a total flow rate (TFR) of around 12ml/min at a 3:1 mixing ratio) and allow it to do a calibration of motor positions. Table 1: Lipid formulation solution
• 18. Fill a fresh syringe (C) through a blunt 18G stainless steel needle with the previously prepared RNA mixture of step 6. The volume should be approximately 85% of total formulation volume + 25 µl (dead-volume). Make sure to remove all air bubbles by tapping. • 19. Fill a fresh syringe (D) through a blunt 18G stainless steel needle with the Lipid master mix. The volume should be approximately […] of total formulation volume + 25 µl (dead-volume). Again, Make sure to remove all bubbles. • 20. Attach the syringes in the correct orientation, […] • 21. Load the 'Receiving station' with appropriate sized collection containers (2 ml Eppendorf tubes). • 22. Press the microfluidic chip to the back of the machine with your thumb and hold, press the 'Button 1' (40 µg). The L1 FM pushes the total volume from the syringes in a perfect 3:1 (mRNA aqueous: lipid in EtOH) ratio through the microfluidic mixer chip with a total flow-rate of […] (Total flow rate (TFR)). • 23. Remove the sample tube from the 'Receiving station' and label the tube accordingly. • 24. Reset the machine to prepare with the next formulation.
• 25. Transfer the individual formulations to 100 kda MWCO, SpectraPor Biotech dialysis tubing, and close with designated clamps. • 26. Submerge the dialysis bags in beakers filled with 1x Phosphate-buffered saline (PBS buffer, pH 7.4, Gibco cat# 202212-019), stir at 230 RPM at room temperature. • 27. […]

[2] = Cell viability assessment with Resazurin assay; type: cell-based; settings: human, hela cells, average over all doses, percent of OptiMEM-only control, read-out: Cell Viability % (Average metabolic rate over all doses, Resazurin)
Excerpt: This protocol is used to determine the metabolic activity of cells as a measure for cell viability after exposure to potentially toxic substances. Resazurin is converted in mitochondria by reduction to resorufin, which has a much higher fluorescence at ~600 nm compared to unconverted resazurin. A lower amount/percentage of conversion is correlated with reduced cellular metabolism and indirectly to cellular death and toxicity. Care must be taken with interpretation of the read-out, as 50% reduction in resazurin conversion may mean 50% reduction of cellular metabolism of 100% alive cells, or 50% of cells dead, and any combination in between.
• 1. Prepare 0.25 mg/ml stock solution resazurin in fresh cell culture medium. Resazurin is auto-reducing over time in solution, especially in medium, and fresh stocks should be prepared every 2-3 days. Stocks should be stored at 4°C and protected from light. For HeLa cells, DMEM/F12 with 10% FCS is used. • 2. Dilute stock solution 10x in fresh cell culture medium to 0.025 mg/ml -> ready for application on cells. For HeLa cells, DMEM/F12 with 10% FCS is used. • 3. Collect 96-well plate and replace cell-culture spent medium with 100 µl per well resazurin solution. Add some resazurin solution for background measurement in wells not containing cells. • 4. Incubate for 50 minutes in incubator at 37°C, 5% CO2, 95% RH. • 5. Transfer resazurin solution to a fresh 96- or 384-well plate. • 6. Measure in plate reader using 540/25 nm (excitation) and 610/40 nm (emission) using standard settings (PTM low/OD-1.0). • 7. Subtract the average background measurement from all samples. Set the average of the negative controls (well receiving OptiMEM only during transfection) to 100% and express all values as percentage of the control activity. Typically, at lower levels of treatment, elevation of metabolic activity is shown, whereas for toxic substances, at toxic concentrations sigmoidal curves can be obtained, with lower activity indicating higher toxicity.

| Size [1] | Zeta potential [1] | PDI [1] | Compound | viability at 24 h [2] [%] |
| --- | --- | --- | --- | --- |
| 291,8 nm | -9,117 mV | 0,169 | CCCCCCCCCCSC(CCCC)C(=O)OCCCCCCN(CCCCCCOC(=O)C(CCCC)SCCCCCCCCCC)CCC1CCCN1C (centres unmarked) [Example 5, ((2-(1-methylpyrrolidin-2-yl)ethyl)azanediyl)bis(hexane-6,1-diyl) bis(2-(decylthio)hexanoate)] | 97 |
| 126,0 nm | -11,48 mV | 0,013 | CCCCCCCCC(SCCCCCCC)C(=O)OCCCCCCN(CCCCO)CCCCCCOC(=O)C(CCCCCCCC)SCCCCCCC (centres unmarked) [Example 6, ((4-hydroxybutyl)azanediyl)bis(hexane-6,1-diyl) bis(2-(heptylthio)decanoate)] | 101 |
| 185,7 nm | -9,667 mV | 0,122 | CCCCCCCCCCSC(CCCC)C(=O)OCCCCCCCCN(CCCCO)CCCCCCCCOC(=O)C(CCCC)SCCCCCCCCCC (centres unmarked) [Example 3, ((4-hydroxybutyl)azanediyl)bis(octane-8,1-diyl) bis(2-(decylthio)hexanoate)] | 103 |
| 226,7 nm | -10,74 mV | 0,223 | CCCCCCCCCCSC(CCCC)C(=O)OCCCCCCN(CCCCO)CCCCCCOC(=O)C(CCCC)SCCCCCCCCCC (centres unmarked) [Example 1, ((4-hydroxybutyl)azanediyl)bis(hexane-6,1-diyl) bis(2-(decylthio)hexanoate)] | 90 |
| 149,7 nm | -12,66 mV | 0,071 | CCCCCCCCCCSC(CCCC)C(=O)OCCCCCCN(CCO)CCCCCCOC(=O)C(CCCC)SCCCCCCCCCC (centres unmarked) [Example 4, ((2-hydroxyethyl)azanediyl)bis(hexane-6,1-diyl) bis(2-(decylthio)hexanoate)] | 98 |
| 152,7 nm | -15,85 mV | 0,022 | CCCCCCCCCCSC(CCCCCCCC)C(=O)OCCCCCCN(CCCCO)CCCCCCOC(=O)C(CCCCCCCC)SCCCCCCCCCC (centres unmarked) [Example 7, ((4-hydroxybutyl)azanediyl)bis(hexane-6,1-diyl) bis(2-(decylthio)decanoate)] | 106 |
| 188,2 nm | -11,48 mV | 0,136 | CCCCCCCCC(SCCCCC)C(=O)OCCCCCCN(CCCCO)CCCCCCOC(=O)C(CCCCCCCC)SCCCCC (centres unmarked) [Example 2, ((4-hydroxybutyl)azanediyl)bis(hexane-6,1-diyl) bis(2-(pentylthio)decanoate)] | 94 |
| 203,9 nm | -9,983 mV | 0,014 | CCCCCCCCCCCCCCSCC(=O)OCCCCCCN(CCCCO)CCCCCCOC(=O)CSCCCCCCCCCCCCCC [Example 10, ((4-hydroxybutyl)azanediyl)bis(hexane-6,1-diyl) bis(2-(tetradecylthio)acetate)] | 99 |
| 167,3 nm | -13,37 mV | 0,144 | CCCCCCCSC(CCCCCC)C(=O)OCCCCCCN(CCCCO)CCCCCCOC(=O)C(CCCCCC)SCCCCCCC (centres unmarked) [Example 9, ((4-hydroxybutyl)azanediyl)bis(hexane-6,1-diyl) bis(2-(heptylthio)octanoate)] | 106 |
| 131,9 nm | -12,32 mV | 0,007 | CCCCCCCCC(CCCCCC)C(=O)OCCCCCCN(CCCCO)CCCCCCOC(=O)C(CCCCCC)CCCCCCCC (centres unmarked) [ALC-0315 ref., reference compound] | 96 |
| 153,5 nm | -14,32 mV | 0,038 | CCCCCCCCCCSC(CCCCCC)C(=O)OCCCCCCN(CCCCO)CCCCCCOC(=O)C(CCCCCC)SCCCCCCCCCC (centres unmarked) [Example 8, ((4-hydroxybutyl)azanediyl)bis(hexane-6,1-diyl) bis(2-(decylthio)octanoate)] | 104 |
